{
  "source": "patent US11919856B2",
  "about": "“Compounds” (UCL BUSINESS LTD, priority 2018, dated 2024)",
  "key": {"α1-antitrypsin [1]": {"tested_on": "α1-antitrypsin", "assay": "End-point constant-temperature heat-induced polymerisation assay (non-denaturing PAGE)", "assay_type": "biochemical, human", "settings": "constant-temperature experiment, versus absence", "method": "Resistance to heat-induced polymerisation was also determined using an end-point constant-temperature assay. Plasma purified M and Z α1-antitrypsin were diluted to 0.2 mg/ml in PBS with 5% v/v glycerol, incubated with 10 μM Compound 1 (or with DMSO alone) for 2 hours and then heated in 20 μl aliquots for a further 4 hours in a thermal cycler with a 48-65° C. gradient applied across the plate. Samples were analysed on a 3-12% w/v acrylamide Bis-Tris Native-PAGE gel (Life Technologies).\n(§1) Polymerisation of α1-antitrypsin occurs from a transient intermediate state known as M*, that is readily populated by the Z variant. One of the hallmarks of M* is its recognition by environment-sensitive fluorescent reporter dyes. Thermal shift assays that make use of the dye SYPRO Orange report the stability of the protein native state against heat-induced unfolding. […] Native state stability can also be probed by equilibrium unfolding using chemical denaturants, where a peak in bis-ANS fluorescence corresponds with a maximally populated unfolding intermediate."}, "α1-antitrypsin [2]": {"tested_on": "α1-antitrypsin", "assay": "Equilibrium unfolding with guanidine hydrochloride (bis-ANS fluorescence)", "assay_type": "biochemical", "settings": "guanidinium hydrochloride, 50 μM Compound 1; 1.2 M in its absence", "method": "Bis-ANS is a dye that reports the appearance of the unfolding intermediate of α1-antitrypsin (Dafforn et al. J Biol Chem. 1999; 274:9548-55.). In a microplate, 10 μl aliquots of M and Z α1-antitrypsin at 0.5 mg/ml with 100 μM bis-ANS and 100 μM Compound 1 (or an equivalent volume of DMSO) were rapidly mixed with various concentrations of guanidine hydrochloride giving a final concentration of 0-6 M denaturant in PBS. Fluorescence intensity measurements of bis-ANS (λex=385 nm, λem=490 nm) were recorded once a stable signal was achieved, and the values scaled to lie between 0 and 1.0.\nas §1"}, "neuroserpin": {"biological_target": "T1, neuroserpin (Homo sapiens, UniProt Q99574)", "T1 sequence (Q99574 17-410)": "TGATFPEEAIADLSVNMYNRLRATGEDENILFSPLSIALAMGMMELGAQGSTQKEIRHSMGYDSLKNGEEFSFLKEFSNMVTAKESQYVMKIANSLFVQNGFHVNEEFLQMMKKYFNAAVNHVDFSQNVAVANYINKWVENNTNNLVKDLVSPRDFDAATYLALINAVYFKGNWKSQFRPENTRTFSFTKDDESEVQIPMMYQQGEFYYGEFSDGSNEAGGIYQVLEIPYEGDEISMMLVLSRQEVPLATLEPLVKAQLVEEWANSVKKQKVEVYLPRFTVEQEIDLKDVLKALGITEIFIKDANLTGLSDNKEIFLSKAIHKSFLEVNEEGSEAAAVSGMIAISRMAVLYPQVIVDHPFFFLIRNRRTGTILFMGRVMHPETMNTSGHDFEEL", "assay": "Serpin inhibitory activity, neuroserpin", "assay_type": "biochemical", "settings": "incubation with 50 μM", "from_the_text": "(§2) In order to investigate suitability of Compound 1 for progression into in vivo studies and the potential for taking forward as a clinical candidate for testing in human, Compound 1 was profiled against a panel of in vitro assays for off-targets considered predictive of potential safety liabilities. […] The measured potency of these marginal activities were at least 10-fold below the cellular activity of Compound 1 at blocking Z α1-antitrypsin polymerisation (pEC50 6.3). Loss of inhibitory activity represents a means by which possible off-target engagement with other serpins can be evaluated. However in contrast to α1-antitrypsin upon incubation with 50 μM Compound 1 the inhibitory activity of the homologues antithrombin, neuroserpin and antichymotrypsin was not affected."}, "antichymotrypsin": {"biological_target": "T2, antichymotrypsin (Homo sapiens, UniProt P01011)", "T2 sequence (P01011 24-423)": "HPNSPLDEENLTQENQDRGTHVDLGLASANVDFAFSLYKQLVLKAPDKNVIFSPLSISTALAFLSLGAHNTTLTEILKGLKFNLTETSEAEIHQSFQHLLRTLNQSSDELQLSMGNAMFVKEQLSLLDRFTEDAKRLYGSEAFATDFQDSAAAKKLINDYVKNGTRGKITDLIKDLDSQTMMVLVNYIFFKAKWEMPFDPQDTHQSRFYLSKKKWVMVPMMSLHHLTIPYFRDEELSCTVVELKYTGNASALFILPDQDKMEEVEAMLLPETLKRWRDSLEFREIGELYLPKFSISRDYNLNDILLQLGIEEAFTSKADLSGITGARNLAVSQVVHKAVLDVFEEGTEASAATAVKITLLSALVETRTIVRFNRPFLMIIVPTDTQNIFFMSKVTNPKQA", "assay": "Serpin inhibitory activity, antichymotrypsin", "assay_type": "biochemical", "settings": "incubation with 50 μM", "from_the_text": "as §2"}, "ChromLogD": {"assay": "ChromLogD", "assay_type": "physicochemical"}, "Solubility in FaSSIF": {"assay": "Solubility in FaSSIF", "assay_type": "physicochemical"}, "[3]": {"assay": "In vitro clearance in cryopreserved hepatocytes, dog", "assay_type": "in vitro ADME"}, "Z α1-antitrypsin": {"biological_target": "Z α1-antitrypsin (Homo sapiens, UniProt P01009, E366K/V237A)", "sequence (P01009 25-418 V237A/E366K)": "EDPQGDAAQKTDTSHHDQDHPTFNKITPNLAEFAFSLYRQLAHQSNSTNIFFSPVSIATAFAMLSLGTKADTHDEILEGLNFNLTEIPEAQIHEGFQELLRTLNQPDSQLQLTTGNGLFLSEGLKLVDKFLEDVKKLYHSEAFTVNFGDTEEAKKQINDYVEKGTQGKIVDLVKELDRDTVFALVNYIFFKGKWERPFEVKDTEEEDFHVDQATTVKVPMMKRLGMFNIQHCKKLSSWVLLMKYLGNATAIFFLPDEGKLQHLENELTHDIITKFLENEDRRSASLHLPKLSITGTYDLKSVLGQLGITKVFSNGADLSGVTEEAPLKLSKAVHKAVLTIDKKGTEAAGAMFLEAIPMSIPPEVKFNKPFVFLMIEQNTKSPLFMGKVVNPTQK", "assay": "Compound association experiments (intrinsic tryptophan fluorescence), Z α1-antitrypsin", "assay_type": "binding", "design": "a random insertion of the human Z α1-antitrypsin gene; from tissue; host or cells: liver and plasma of Z α1-antitrypsin transgenic mice (human Z transgene)", "method": "The intrinsic tryptophan fluorescence of α1-antitrypsin is dominated by Trp194 in the breach region (Tew et al. J Mol Biol. 2001 Nov. 9; 313(5):1161-9) and can be used to monitor the progress of compound binding. Plasma M and Z α1-antitrypsin were diluted to 0.2 mg/ml in 100 μM PBS, and Compound 1 (or an equivalent volume of DMSO) added to a concentration of 10 μM. Fluorescence (λex=280 nm, λem=330 nm) was monitored for at least 2 hours, and the half-time of change was calculated.\nKinetic data in stopped flow experiments were fitted to exponential decay curves with offset and linear slope, to account for a constant drift in the background, resulting in observed pseudo-first-order rate constants k(obs): y=A0·e^−k(obs)t+slope·t+offset where t=time and Ao=amplitude at t=0. The second-order on-rate was then obtained as the slope when plotting k(obs) values versus compound concentration. Off-rates were calculated from the on-rates and the KD values determined from the binding assays. Cell Biology"}},
  "data": [
    {"smiles": "CCC[C@@H](NC(=O)c1cccc2c1CC(=O)N2)[C@@H](O)c1cccc(F)c1C", "note": "[Compound 1, N-[(1S,2R)-1-(3-fluoro-2-methylphenyl)-1-hydroxypentan-2-yl]-2-oxo-2,3-dihydro-1H-indole-4-carboxamide]", "values": [
      {"measurement": "temperature at which oligomers are generated", "setting": "α1-antitrypsin [1]", "value": "higher temperatures"},
      {"measurement": "denaturant concentration at peak bis-ANS fluorescence (maximally populated unfolding intermediate)", "setting": "α1-antitrypsin [2]", "value": 1.8, "unit": "M"},
      {"measurement": "inhibitory activity of neuroserpin", "setting": "neuroserpin", "value": "not affected"},
      {"measurement": "inhibitory activity of antichymotrypsin", "setting": "antichymotrypsin", "value": "not affected"},
      {"measurement": "ChromLogD (pH7.4)", "setting": "ChromLogD", "value": 3.8},
      {"measurement": "solubility of amorphous drug substance in FaSSIF", "setting": "Solubility in FaSSIF", "value": "good solubility"},
      {"measurement": "in vitro clearance in cryopreserved hepatocytes", "setting": "[3]", "value": "< 0.65", "unit": "mL/min/g"},
      {"measurement": "koff", "setting": "Z α1-antitrypsin; calculated from on-rate and KD, read-out: first-order dissociation rate", "value": "6.1e-05", "unit": "s⁻¹"},
      {"measurement": "kon", "setting": "Z α1-antitrypsin; read-out: second-order association rate", "value": 41000, "unit": "M⁻¹ s⁻¹"}
    ]}
  ]
}
